From patent publication US20210101881A1 (Ancureall Pharmaceutical (Shanghai) Co., Ltd., priority 2018, published 2021)

Experiments:
Assay in all cases: Growth inhibition of CDK9-positive tumor cell line in vitro
Assay type in all cases: cell-based
[1] = test system: 8305C; conditions: Human thyroid cancer, read-out: Inhibitory activity (IC50) on growth in vitro, 8305C
Method: (§1) Measurement of the Inhibitory Activity of the Present Compound on the Growth of Various Types of CDK9-Positive Tumor Cell Lines In Vitro
(§2) The inventors selected representative CDK9-positive tumor cell lines for further determination of the compound activity. All cell lines used came from ATCC, JCRB, DSMZ and Chinese Academy of Sciences Cell Bank (ZK). Cell culture condition and method were based on the requirements of each cell line. No more than 3 passages were carried out in each culture in vitro. Monoclonal purification and STR identification of the cell line were conducted if necessary.

[2] = test system: A375; conditions: A-375, Human melanoma, read-out: Inhibitory activity (IC50) on growth in vitro, A375
Method: as §1, §2

[3] = test system: B-CPAP; conditions: BCPAP, Human thyroid cancer, read-out: Inhibitory activity (IC50) on growth in vitro, B-CPAP
Method: as §1, §2

[4] = test system: CA Ski; conditions: Human cervical cancer, read-out: Inhibitory activity (IC50) on growth in vitro, CA Ski
Method: as §1, §2

[5] = test system: CAL-120; conditions: Human breast cancer, read-out: Inhibitory activity (IC50) on growth in vitro, CAL-120
Method: as §1, §2

[6] = test system: Colo205; conditions: COLO 205, Human intestinal cancer, read-out: Inhibitory activity (IC50) on growth in vitro, Colo205
Method: as §1, §2

[7] = test system: DU-145; conditions: Human prostate cancer, read-out: Inhibitory activity (IC50) on growth in vitro, DU-145
Method: as §1, §2

[8] = test system: HCC1954; conditions: Human breast cancer, read-out: Inhibitory activity (IC50) on growth in vitro, HCC1954
Method: as §1, §2

[9] = test system: HCT-116; conditions: Human intestinal cancer, read-out: Inhibitory activity (IC50) on growth in vitro, HCT-116
Method: as §1, §2

[10] = test system: HO8910PM; conditions: Human ovarian cancer, read-out: Inhibitory activity (IC50) on growth in vitro, HO8910PM
Method: as §1, §2

[11] = test system: HuCCT-1; conditions: Human cholangiocarcinoma, read-out: Inhibitory activity (IC50) on growth in vitro, HuCCT-1
Method: as §1, §2

[12] = test system: JIMT-1; conditions: Human breast cancer, read-out: Inhibitory activity (IC50) on growth in vitro, JIMT-1
Method: as §1, §2

[13] = test system: KG-1; conditions: Human acute myeloid leukemia, read-out: Inhibitory activity (IC50) on growth in vitro, KG-1
Method: as §1, §2

[14] = test system: KHM-5M; conditions: read-out: Inhibitory activity (IC50) on growth in vitro, Human thyroid cancer
Method: as §1, §2

[15] = test system: KYSE70; conditions: KYSE-70, Human esophageal cancer, read-out: Inhibitory activity (IC50) on growth in vitro, KYSE70
Method: as §1, §2

[16] = test system: Kasumi-1; conditions: Human acute myeloid leukemia, read-out: Inhibitory activity (IC50) on growth in vitro, Kasumi-1
Method: as §1, §2

[17] = test system: LN229; conditions: LN-229, Human glioma, read-out: Inhibitory activity (IC50) on growth in vitro, LN229
Method: as §1, §2

[18] = test system: MCF7; conditions: Human breast cancer, read-out: Inhibitory activity (IC50) on growth in vitro, MCF7
Method: as §1, §2

[19] = test system: MDA-MB-231; conditions: Human breast cancer, read-out: Inhibitory activity (IC50) on growth in vitro, MDA-MB-231
Method: as §1, §2

[20] = test system: MDA-MB-436; conditions: Human breast cancer, read-out: Inhibitory activity (IC50) on growth in vitro, MDA-MB-436
Method: as §1, §2

[21] = test system: MDA-MB-453; conditions: Human breast cancer, read-out: Inhibitory activity (IC50) on growth in vitro, MDA-MB-453
Method: as §1, §2

[22] = test system: MFM-223; conditions: Human breast cancer, read-out: Inhibitory activity (IC50) on growth in vitro, MFM-223
Method: as §1, §2

[23] = test system: NCI-H1581; conditions: Human lung cancer, read-out: Inhibitory activity (IC50) on growth in vitro, NCI-H1581
Method: as §1, §2

[24] = test system: NCI-H1975; conditions: Human lung cancer, read-out: Inhibitory activity (IC50) on growth in vitro, NCI-H1975
Method: as §1, §2

[25] = test system: NCI-H1993; conditions: Human lung cancer, read-out: Inhibitory activity (IC50) on growth in vitro, NCI-H1993
Method: as §1, §2

[26] = test system: NCI-H460; conditions: Human lung cancer, read-out: Inhibitory activity (IC50) on growth in vitro, NCI-H460
Method: as §1, §2

[27] = test system: NCI-N87; conditions: Human stomach cancer, read-out: Inhibitory activity (IC50) on growth in vitro, NCI-N87
Method: as §1, §2

[28] = test system: Pfeiffer; conditions: Human B lymphocyte tumor, read-out: Inhibitory activity (IC50) on growth in vitro, Pfeiffer
Method: as §1, §2

[29] = test system: TPC-1; conditions: TPC1, Human thyroid cancer, read-out: Inhibitory activity (IC50) on growth in vitro, TPC-1
Method: as §1, §2

| Structure (SMILES) | IC50 [1] [nM] | IC50 [2] [nM] | IC50 [3] [nM] | IC50 [4] [nM] | IC50 [5] [nM] | IC50 [6] [nM] | IC50 [7] [nM] | IC50 [8] [nM] | IC50 [9] [nM] | IC50 [10] [nM] | IC50 [11] [nM] | IC50 [12] [nM] | IC50 [13] [nM] | IC50 [14] [nM] | IC50 [15] [nM] | IC50 [16] [nM] | IC50 [17] [nM] | IC50 [18] [nM] | IC50 [19] [nM] | IC50 [20] [nM] | further results |
| --- | --- | --- | --- | --- | --- | --- | --- | --- | --- | --- | --- | --- | --- | --- | --- | --- | --- | --- | --- | --- | --- |
| CCN1CCN(c2cccc(Nc3ncc(F)c(-n4cc(C(N)=O)c5cc(OC)ccc54)n3)c2)CC1 [Compound 152, 1-{2-[3-(4-ethyl-piperazin-1-yl)-phenylamino]-5-fluoro-pyrimidin-4-yl}-5-methoxy-1H-indole-3-carboxamide] | 1 to 10 | 1 to 10 | 1 to 10 | < 1 | < 1 | 1 to 10 | 1 to 10 | < 1 | 1 to 10 | < 1 | 1 to 10 | < 1 | 1 to 10 | 1 to 10 | 1 to 10 | 1 to 10 | 1 to 10 | < 1 | < 1 | < 1 | IC50 [21]: < 1 nM; IC50 [22]: < 1 nM; IC50 [23]: < 1 nM; IC50 [24]: 1 to 10 nM; IC50 [25]: 1 to 10 nM; IC50 [26]: 1 to 10 nM; IC50 [27]: 1 to 10 nM; IC50 [28]: < 1 nM; IC50 [29]: 1 to 10 nM |
| CCN1CCN(c2cccc(Nc3ncc(F)c(-n4cc(C(N)=O)c5cc(F)ccc54)n3)c2)CC1 [Compound 161, 1-{2-[3-(4-ethyl-piperazin-1-yl)-phenylamino]-5-fluoro-pyrimidin-4-yl}-5-fluoro-1H-indole-3-carboxamide] | 1 to 10 | 1 to 10 | 1 to 10 | < 1 | < 1 | 1 to 10 | 1 to 10 | < 1 | 1 to 10 | < 1 | 1 to 10 | < 1 | 1 to 10 | 1 to 10 | 1 to 10 | 1 to 10 | 1 to 10 | < 1 | < 1 | < 1 | IC50 [21]: < 1 nM; IC50 [22]: < 1 nM; IC50 [23]: < 1 nM; IC50 [24]: 1 to 10 nM; IC50 [25]: 10 to 100 nM; IC50 [26]: 1 to 10 nM; IC50 [27]: 1 to 10 nM; IC50 [28]: < 1 nM; IC50 [29]: 1 to 10 nM |
